# Laboratory results published in patent US11590117B2, “Treatment of a hematologic malignancy with 2-(4-chlorophenyl)-n-((2-(2,6-dioxopiperidin-3-yl)-1-oxoisoindolin-5-yl)methyl)-2,2-difluoroacetamide” (priority 2016, dated 2023).
# Columns and labels:
# HL-60 human AML cells = experiment: HL-60 IV AML xenograft model, survival study; assay type: in vivo, SCID mice; settings: positive control; p<0.05 vs vehicle
# Protocol: In this study, Compound 1 antitumor activity in the HL-60 IV AML xenograft model was studies. In this model, HL-60 human AML cells engraft in host BM and internal organs (eg, spleen, liver) and animals develop progressive peripheral leukocytosis. Female severe combined immunodeficiency (SCID) mice were inoculated with HL-60 cells by tail vein injection. To understand the effect of Compound 1 on the xenografted HL-60 cells, animals were dosed intraperitoneal (IP) with vehicle or Compound 1 (0.5, 1, 2.5, and 5 mg/kg) once daily (QD)×5 between Weeks 3 and 4 post-engraftment (AP6516, survival study) or animals were dosed IP twice daily (BID) with vehicle or Compound 1 for 5 or 10 consecutive days (5 mg/kg BID×5 or 2.5 mg/kg, BID×10) between Weeks 6 and 8 post-engraftment (Study AP6982, % human CD33+[hCD33+] cells in BM).
# Tumor burden from the peripheral blood of HL-60-bearing animals was assessed by fluorescence-activated cell sorting (FACS) at Week 7 post-tumor cell inoculation. […] Mice from the vehicle control and Compound 1 treatment groups succumbed to disease burden starting on Day 54 for the vehicle control group and between Day 51 and Day 57 for the Compound 1 treatment groups. […] One mouse (1/8) from the 2.5 mg/kg Compound 1-treated group survived to study termination on Day 162.
# [1] = Dynamic vapor sorption (DVS) analysis; assay type: physicochemical; settings: relative humidity increased from about 0% to about 90% RH
# Protocol: In certain embodiments, Form A is characterized by dynamic vapor sorption analysis. […] In certain embodiments, Form A comprises less than 0.1% water as determined in a coulometric Karl Fischer (KF) titrator equipped with an oven sample processor set at 225° C.
# In certain embodiments, Form B is characterized by dynamic vapor sorption analysis. […] In certain embodiments, Form B comprises less than 0.1% water as determined in a coulometric Karl Fischer (KF) titrator equipped with an oven sample processor set at 225° C.
# In certain embodiments, Form C is characterized by dynamic vapor sorption analysis. […] In certain embodiments, Form C comprises less than 0.1% water as determined in a coulometric Karl Fischer (KF) titrator equipped with an oven sample processor set at 225° C.
# [2] = assay type: physicochemical
# Text: In certain embodiments, the compound for use in the methods is an anhydrous Form C of 2-(4-chlorophenyl)-N-((2-(2,6-dioxopiperidin-3-yl)-1-oxoisoindolin-5-yl)methyl)-2,2-difluoroacetamide.
# In certain embodiments, Form C is obtained by slurrying 2-(4-chlorophenyl)-N-((2-(2,6-dioxopiperidin-3-yl)-1-oxoisoindolin-5-yl)methyl)-2,2-difluoroacetamide in certain solvent systems, for example, solvent systems comprising one or more of the following solvents: acetonitril/water, acetone, or ethanol/water for extended period of time.
Structure (SMILES),median survival (HL-60 human AML cells) [days],water uptake (DVS) [1],thermodynamic stability among the crystal forms [2]
"Nc1nc(F)nc2c1ncn2[C@@H]1O[C@H](CO)[C@@H](O)[C@@H]1O [fludarabine, reference compound]",76,–,–
"O=C1CCC(N2Cc3cc(CNC(=O)C(F)(F)c4ccc(Cl)cc4)ccc3C2=O)C(=O)N1 (centres unmarked) [Form B, 2-(4-chlorophenyl)-N-((2-(2,6-dioxopiperidin-3-yl)-1-oxoisoindolin-5-yl)methyl)-2,2-difluoroacetamide]",–,about 1.4 % w/w,–
"O=C1CCC(N2Cc3cc(CNC(=O)C(F)(F)c4ccc(Cl)cc4)ccc3C2=O)C(=O)N1 (centres unmarked) [Form C, 2-(4-chlorophenyl)-N-((2-(2,6-dioxopiperidin-3-yl)-1-oxoisoindolin-5-yl)methyl)-2,2-difluoroacetamide]",–,about 0.6 % w/w,most thermodynamically stable anhydrate
"O=C1CCC(N2Cc3cc(CNC(=O)C(F)(F)c4ccc(Cl)cc4)ccc3C2=O)C(=O)N1 (centres unmarked) [Form A, 2-(4-chlorophenyl)-N-((2-(2,6-dioxopiperidin-3-yl)-1-oxoisoindolin-5-yl)methyl)-2,2-difluoroacetamide]",–,about 1.2 % w/w,–
